Like-named read-outs stand apart in the source and are kept apart here.
Experiments:
[1] = tested on: anoxic ventricular fibrillation in mice; assay: Cardiac antifibrillatory activity on the mouse (Lawson test); type: in vivo; conditions: ip, intraperitoneal, 10 minutes before chloroform, read-out: ED 50 (protects half the mice against anoxic ventricular fibrillation)
Description: Cardiac antifibrillatory activity of the derivatives of the invention has been verified on the mouse using the Lawson test, in accordance with the method described by J. W. Lawson, J. Pharmacol. Exp. Therp. 160, 22-31 (1968), and C. Narcisse et al., Ann. Pharm. Fr. 37, 325-330 (1979).
The mice (20 per dose) received an intraperitoneal injection of the derivative 10 minutes before being placed in a chloroform saturated atmosphere. As soon as respiratory arrest occurred, the thorax was opened (5 to 10 seconds) and the state of the heart was checked: presence or absence of ventricular fibrillation. The efficacy dose 50 (ED 50) of the derivative being studied is the dose which protects half the mice against anoxic ventricular fibrillation.

[2] = tested on: ventricular arrhythmias induced by aconitine in the anesthetized rat; assay: Antiarrhythmic test with aconitine on the rat; type: in vivo
Description: The derivatives of the invention were used in the test with aconitine on the rat. For this test, the anesthetized rat was intoxicated by an intravenous perfusion of aconitine (solution of aconitine nitrate: 15 mg/l; speed of perfusion: 0.4 ml/min) while its electrocardiogram was recorded permanently. During perfusion at constant speed, the time necessary for the appearance of ventricular arrhythmias, successively ventricular extrasystoles (ESV), ventricular tachycardium (TV) and ventricular fibrillation (FV) was measured.
The animals were divided into a control group (untreated) and treated group (different doses). The results are expressed as a percentage of prolonging the time of the appearance of the arrhythmias in the treated groups in relation to the control group. This prolongation of arrhythmia appearance time therefore corresponds to myocardiac protection against the arrhythmic effects of aconitine.

anesthetized dog = assay: Hemodynamic effects on the anesthetized dog; type: in vivo; conditions: i.v.; for (dp/dt)l/p, percentage of variation / Cardiac flow, percentage of variation / Cardiac frequency, percentage of variation / Contraction force of the myocardium, percentage of variation / Systolic arterial pressure, percentage of variation / Systolic volume, percentage of variation: Example 4 series, vs pretreatment; for Cardiac frequency (result in words) / Systolic arterial pressure (result in words) / force of ventricular myocardiac contractions (result in words) / cumulative dose at which a 20% drop of cardiac flow is reached: anesthetized dog
Description: Cardiovascular tolerance was studied on the isolated guinea pig auricle, on the anesthetized rat and on the anesthetized dog.
On the anesthetized dog, the results obtained with respect to hemodynamic tolerance are summarized in Table 2 below which indicates the percentages of variation of the hemodynamic parameters in relation to the pre-treatment control period for the derivatives of Examples 2 and 4.
The parameters were recorded by means of:
Catheters connected to pressure sensors (arterial pressure, left ventricular pressure and its first derivative dp/dt);
Electromagnetic flowmeter on the aorta (aortic flow);
Strain gauge placed on the left ventricular myocardium (force of myocardiac contraction).
The derivatives were injected intraveneously, one dose approximately every 30 minutes and their effects were measured 20 minutes after the completion of the injection (length of the injection 2 minutes).

rabbit cornea = assay: Local contact anesthesia on the rabbit cornea; type: in vivo; conditions: solution at 0.25% or 1% by weight, eyewash instillation
Text: For example, the derivatives described in Examples 2, 3, 4, 6, 7 and 9 are local anesthetics (100% anesthesia) in a solution at 0.25% or 1% by weight.

[3] = Acute toxicity (lethal dose 50) in the mouse; conditions: in vivo, oral (P.O.), 5 males and 5 females per dose, read-out: LD 50 P.O.
Text: The acute toxicity of the deriatives of the invention were studied by oral administration (P.O) to the mouse (10 animals, 5 males and 5 females per dose) and calculation of the lethal dose 50 (LD 50) in accordance with the method of Litchfield and Wilcoxon (J. Pharmacol., 96, 99-113 (1949)). Table 1 gives the LD 50 values of the derivatives of the invention.
In certain cases, the LD 50 was also studied after intraperitoneal injection (I.P.) of the derivatives.

[4] = tested on: isolated guinea pig auricle; assay: Maximum stimulation frequency test on isolated guinea pig auricle; conditions: Cavia porcellus; 10 mg/l; read-out: Δ% MFS (decrease of the maximum frequency followed)
Description: The maximum frequency test carried out studied the maximum stimulation frequency which can cause contraction of an isolated guinea pig auricle placed in a solution containing a derivative of the invention. The measurement was carried out before (control period) and then after introduction of the derivative into the solution.

[5] = tested on: ventricular extrasystoles in the dog; assay: Harris test on the dog; type: in vivo; conditions: during the 2 hours following the injection
Description: By way of example, the number of ventricular extrasystoles per minute decreases by approximately 50% during the 2 hours following the injection of the product, in the case of the derivative described in Example 10. Moreover, the antiarrhythmic effect (myocardiac protection) increases with the size of the dose injected.

[6] = read-out: Prolongation of time of appearance of ventricular extrasystoles (ESV)
[7] = read-out: Prolongation of time of appearance of ventricular fibrillation (FV)
[8] = read-out: Prolongation of time of appearance of ventricular tachycardium (TV)

## Cc1c(-c2ccccc2)n[nH]c1OCCN1CCOCC1 [Example 4, 3-Phenyl-4-methyl-5-morpholinoethoxy-pyrazole]
[1]
  ED50: 46 mg/kg
[2]; [6]
  change in vivo at 10 mg/kg: 7%
[2]; [7]
  change in vivo at 10 mg/kg: 18%
[2]; [8]
  change in vivo at 10 mg/kg: 22%
Anesthetized dog; dose 1 mg/kg
  (dp/dt)l/p, percentage of variation: +10%
  Cardiac flow, percentage of variation: 0%
  Cardiac frequency, percentage of variation: 0%
  Contraction force of the myocardium, percentage of variation: +5%
  Systolic arterial pressure, percentage of variation: 0%
  Systolic volume, percentage of variation: 0%
Anesthetized dog; dose +3 mg/kg
  (dp/dt)l/p, percentage of variation: +2%
  Cardiac flow, percentage of variation: 0%
  Cardiac frequency, percentage of variation: 0%
  Contraction force of the myocardium, percentage of variation: +10%
  Systolic arterial pressure, percentage of variation: 0%
  Systolic volume, percentage of variation: 0%
Anesthetized dog; dose +10 mg/kg
  (dp/dt)l/p, percentage of variation: -10%
  Cardiac flow, percentage of variation: -23%
  Cardiac frequency, percentage of variation: 0%
  Contraction force of the myocardium, percentage of variation: +26%
  Systolic arterial pressure, percentage of variation: 0%
  Systolic volume, percentage of variation: -23%
Anesthetized dog; dose +20 mg/kg
  (dp/dt)l/p, percentage of variation: -21%
  Cardiac flow, percentage of variation: -34%
  Cardiac frequency, percentage of variation: 0%
  Contraction force of the myocardium, percentage of variation: +42%
  Systolic arterial pressure, percentage of variation: 0%
  Systolic volume, percentage of variation: -34%
Anesthetized dog; dose +40 mg/kg
  (dp/dt)l/p, percentage of variation: -10%
  Cardiac flow, percentage of variation: -11%
  Cardiac frequency, percentage of variation: -18%
  Contraction force of the myocardium, percentage of variation: +52%
  Systolic arterial pressure, percentage of variation: 0%
  Systolic volume, percentage of variation: -8%
Anesthetized dog
  Cardiac frequency (result in words): does not change
  Systolic arterial pressure (result in words): does not change
  force of ventricular myocardiac contractions (result in words): increases
  cumulative dose at which a 20% drop of cardiac flow is reached: greater than 4 mg/kg
Rabbit cornea
  local anesthesia: 100%
[3]
  LD50: 750 mg/kg
[4]
  inhibition at 10 µg/mL: 27%

## Clc1ccc(-c2cc(OCCN3CCOCC3)[nH]n2)cc1 [Example 10]
[3]
  LD50: 1000 mg/kg
[4]
  inhibition at 10 µg/mL: 15%
[5]
  decrease of the number of ventricular extrasystoles per minute: approximately 50%

## c1ccc(-c2cc(OCCN3CCCCC3)[nH]n2)cc1 [Example 9]
[1]
  ED50: 44 mg/kg
[2]; [6]
  change in vivo at 10 mg/kg: 0%
[2]; [7]
  change in vivo at 10 mg/kg: 38%
[2]; [8]
  change in vivo at 10 mg/kg: 28%
Anesthetized dog
  Cardiac frequency (result in words): drops moderately
  Systolic arterial pressure (result in words): does not change
  force of ventricular myocardiac contractions (result in words): does not vary significantly
  cumulative dose at which a 20% drop of cardiac flow is reached: greater than 4 mg/kg
Rabbit cornea
  local anesthesia: 100%
[3]
  LD50: 400 to 800 mg/kg
[4]
  inhibition at 10 µg/mL: 48%

Source: patent publication US4410525A, “Alkoxy pyrazole derivatives and compositions” (Establissements Nativelle S.A., priority 1981, dated 1983)
